How the values were obtained:
[1] = test system: T47-D (ER-positive) breast tumor cell line; assay: Cell death by MTT assay, T47-D; assay type: cell-based, human; details: 24 hours, mean of four experiments
Experimental: (§1) The ER-positive breast tumor cell lines MCF-7 and T47-D and the HER2 positive breast tumor cell lines MDA-MB-453 and BT474 (also ER-positive) were incubated with the indicated concentration of each mentioned compound of formula (I) for 24 hours and then cell death was assessed using MTT assay.
(§2) For each cell line, the percentage of cell death (mean of four experiments for cell lines MCF-7 and T47-D, and two experiments for cell lines MDA-MB-453 and BT474) is given in view of the increasing concentration of each tested compound of the invention.
(§3) Cell viability was assessed using the 3-[4,5-dimethylthiazol-2-yl]-2,5-diphenyltetrazolium bromide (MTT) viability assay (1). In brief, cells (4×10^4 per well) were cultured for 20 h in flat-bottomed 96 well plates with various concentrations of the apoptosis inducer. Then 0.015 ml of MTT (5 mg/ml in PBS) was added to each well and incubated for 4 h at 37° C. Formazan salt precipitats were dissolved by adding 0.115 ml of isopropyl alcohol containing 1% formic acid (v/v), and the absorbance was measured at 570 nm.

[2] = test system: MDA-MB-453 (HER2 positive) breast tumor cell line; assay: Cell death by MTT assay, MDA-MB-453; assay type: cell-based, human; details: 24 hours, mean of two experiments
Experimental: as §1, §2, §3

[3] = test system: MDA-MB-231 cells; assay: Boyden chamber cell migration, MDA-MB-231 stimulated with CD95L; assay type: cell-based, human; details: MDA-MB-231, 1 μM, CD95L 100 ng/ml, 24 hours, FIG. 17B
Experimental: TNBC (MDA-MB-231 and BT549) cell lines were pre-incubated for 1 hour in presence or absence of non-cytotoxic amount of compound 25 (1 μM) and then treated or untreated with CD95L (100 ng/ml) for 24 hours. Cell migration was analyzed using Boyden chamber assay. Migrating Giemsa-stained cells were lysed and absorbance was measured at a wavelength of 560 nm. Values represent the means±SEM of three independently performed experiments. *p<0.05 as calculated using two-tailed Mann-Whitney test.
After membrane hydration of Boyden chambers (Millipore, Molsheim, France) containing 8 μm pore membranes, 10^5 cells were added to the top chamber. The bottom chamber was filled with low serum (1%)-containing medium in the presence or absence of cl-CD95L (100 ng/ml). Breast cancer cells were incubated for 24 h. To quantify invasion, cells were fixed with methanol and stained with Giemsa. Stained cells were then removed from the top-side of the membrane using a cotton-tipped swab and five representative pictures for each insert were taken of the invading cells from the reverse side. For each experiment, invading cells were lysed and absorbance at 560 nm was measured.

[4] = biological target: mTORC2 (Homo sapiens, UniProt P42345); assay: Immunoblot of mTORC2 substrate Akt-Ser473 in CEM cells; assay type: cell-based; design: endogenous in cells; host or cells: CEM cells; details: 2 hours, FIG. 16
Experimental: CEM cells (1·10^6 cells) were incubated with indicated concentrations of compound 25 for 2 hours and lysates of the cells were subjected to Western blot analysis. Inhibitory activity of compound 25 on mTORC1 substrates p70S6K-Thr389 and 4EBP1-Thr37 and 46 and on mTORC2 substrate Akt-Ser473 and on PDK1 substrate Akt-Thr308 was evaluated by immunoblotting. Total 4EBP1, p70S6K, Akt and […] serve as loading controls. The compounds of the invention and more particularly compound 25 may be competitive inhibitors of mTOR because they inhibit mTORC1 (4EBP1 and p70S6K) and mTORC2 substrates (AKT at S473) as shown in FIG. 16.
Immunoblots Excepted for immunoprecipitation experiments in which cells were lyzed with RIPA buffer, cells were lyzed for 30 min at 4° C. in Lysis buffer (25 mM HEPES pH 7.4, 1% v/v Triton X-100, 150 mM NaCl, 2 mM EGTA supplemented with a mix of protease inhibitors). Protein concentration was determined by the bicinchoninic acid method (Pierce, Rockford, Ill., USA) according to the manufacturer's protocol. Proteins were resolved by 8, 10 or 12% SDS-PAGE and transferred to a nitrocellulose membrane (GE Healthcare, Buckinghamshire, UK). The membrane was blocked 15 min with TBST (50 mM Tris, 160 mM NaCl, 0.05% v/v Tween 20, pH 7.4) containing 5% w/v dried skimmed milk (TBS™). Primary antibody was incubated overnight at 4° C. in TBS™. […]

[5] = biological target: mTORC1 (Homo sapiens, UniProt P42345); assay: Immunoblot of mTORC1 activity in TSC2^−/− AML cells; assay type: cell-based; design: AML cells (1.10^6 cells) deficient for TSC2 (TS2^−/−) or reconstituted with wild type TSC2; endogenous in cells; host or cells: AML (angiomyolipoma) cells from a patient, TSC2-/- or reconstituted with wild type TSC2; details: 10 μM, FIG. 15
Experimental: AML cells (1.10^6 cells) deficient for TSC2 (TS2^−/−) or reconstituted with wild type TSC2 (TSC2^+/+) (generous gift from Dr M. Pende, Paris) were treated or untreated for indicated times with 10 μM of compound 25 or rapamycin and then cells were lyzed. 100 μg of protein was loaded and resolved by SDS-PAGE and indicated immunoblots were performed. Total S6 and β-actin serve as loading controls. S6 is phosphorylated by p70S6K on its serine 240 and 244. 4EBP1 is phosphorylated by mTORC1 on its Threonine at positions 37 and 46. p70S6K and 4EBP1 are direct substrates of mTORC1. mTORC1-driven phosphorylation of 4EBP1 can be monitored by the appearance of a high molecular weight band which disappears in presence of compound 25 or Rapamycin (see FIG. 15). Of note, restoration of TS2 expression in AML cells reduces the basal level of S6 and 4EBP1 phosphorylation.
Immunoblots Excepted for immunoprecipitation experiments in which cells were lyzed with RIPA buffer, cells were lyzed for 30 min at 4° C. in Lysis buffer (25 mM HEPES pH 7.4, 1% v/v Triton X-100, 150 mM NaCl, 2 mM EGTA supplemented with a mix of protease inhibitors). Protein concentration was determined by the bicinchoninic acid method (Pierce, Rockford, Ill., USA) according to the manufacturer's protocol. Proteins were resolved by 8, 10 or 12% SDS-PAGE and transferred to a nitrocellulose membrane (GE Healthcare, Buckinghamshire, UK). […]

O=[N+]([O-])C1=Cc2cc(Br)cc(Br)c2OC1c1ccc(Br)cc1 (stereo not shown) [Compound 25, 6,8-dibromo-2-(4-bromo-phenyl)-3-nitro-2H-chromene]
percentage of cell death ([1]; 6.25 μM): 85.31% | percentage of cell death ([1]; 12.5 μM): 91.27% | percentage of cell death ([1]; 25 μM): 90.23% | percentage of cell death ([1]; 50 μM): 91.25% | percentage of cell death ([2]; MDA-MB-453, 0.390625 μM): 0% | percentage of cell death ([2]; MDA-MB-453, 0.78125 μM): 9.09% | percentage of cell death ([2]; MDA-MB-453, 1.5625 μM): 81% | percentage of cell death ([2]; MDA-MB-453, 3.125 μM): 85.57% | percentage of cell death ([2]; MDA-MB-453, 6.25 μM): 89.213% | percentage of cell death ([2]; MDA-MB-453, 12.5 μM): 95.09% | percentage of cell death ([2]; MDA-MB-453, 25 μM): 99.35% | percentage of cell death ([2]; MDA-MB-453, 50 μM): 100.76% | migration of tumor cells stimulated with CD95L [3]: abrogate | inhibitory activity on mTORC2 substrate (AKT at S473) [4]: inhibit | mTORC1 activity in TSC2^−/− cells [5]: inhibit mTORC1 activity | mTORC1-driven phosphorylation of 4EBP1 (high molecular weight band) ([5]; AML cells): disappears

From US9656984B2, “PI3K/AKT/mTOR inhibitors and pharmaceutical uses thereof” (UNIVERSITE DE RENNES 1, priority 2013, dated 2017)
